Drawing on the kinase profiling compilation of Christmann-Franck et al. (2016), this text covers kinase still bound, per cent of control for 25 compounds.

Targets include CDK4 CCND1 (human) (UniProt P11802+P24385); ABL1 (human) (UniProt P00519); SGK1 (human) (UniProt O00141); WNK3 (human) (UniProt Q9BYP7); RPS6KA3 KD2 (human) (UniProt P51812); WNK1 (human) (UniProt Q9H4A3); GSG2 (human) (UniProt Q8TF76); BUB1 (human) (UniProt O43683).
Holding throughout (assay): KINOMEscan competition binding
What all share (conditions): compound 10.0 µM

In assay [1] the test system is ABL1 (human), P00519 [E255K].
The subject of assay [2] is ABL1 (human), P00519 [T315I].
The test system of assay [3] is ABL1 (human), P00519 [Q252H].

Each structure is given as a SMILES string.

CDK4 CCND1 (human), sequence (P11802 whole entry, looked up): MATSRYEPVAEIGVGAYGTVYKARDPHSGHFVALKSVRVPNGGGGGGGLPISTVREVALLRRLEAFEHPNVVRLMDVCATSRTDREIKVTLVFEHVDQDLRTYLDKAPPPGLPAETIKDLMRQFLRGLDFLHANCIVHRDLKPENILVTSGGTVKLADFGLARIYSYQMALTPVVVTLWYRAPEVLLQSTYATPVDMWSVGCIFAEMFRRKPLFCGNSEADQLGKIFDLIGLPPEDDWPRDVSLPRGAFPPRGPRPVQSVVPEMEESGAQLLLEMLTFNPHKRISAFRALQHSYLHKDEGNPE
CDK4 CCND1 (human), sequence (P24385 whole entry, looked up): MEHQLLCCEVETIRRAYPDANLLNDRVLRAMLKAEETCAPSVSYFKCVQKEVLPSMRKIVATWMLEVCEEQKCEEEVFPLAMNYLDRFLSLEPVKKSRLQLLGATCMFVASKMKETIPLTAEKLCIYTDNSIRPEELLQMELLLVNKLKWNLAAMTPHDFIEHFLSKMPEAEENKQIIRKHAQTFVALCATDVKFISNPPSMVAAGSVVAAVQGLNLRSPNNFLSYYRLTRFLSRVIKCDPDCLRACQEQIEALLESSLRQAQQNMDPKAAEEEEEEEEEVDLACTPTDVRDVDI
RPS6KA3 KD2 (human), sequence (P51812 whole entry, looked up): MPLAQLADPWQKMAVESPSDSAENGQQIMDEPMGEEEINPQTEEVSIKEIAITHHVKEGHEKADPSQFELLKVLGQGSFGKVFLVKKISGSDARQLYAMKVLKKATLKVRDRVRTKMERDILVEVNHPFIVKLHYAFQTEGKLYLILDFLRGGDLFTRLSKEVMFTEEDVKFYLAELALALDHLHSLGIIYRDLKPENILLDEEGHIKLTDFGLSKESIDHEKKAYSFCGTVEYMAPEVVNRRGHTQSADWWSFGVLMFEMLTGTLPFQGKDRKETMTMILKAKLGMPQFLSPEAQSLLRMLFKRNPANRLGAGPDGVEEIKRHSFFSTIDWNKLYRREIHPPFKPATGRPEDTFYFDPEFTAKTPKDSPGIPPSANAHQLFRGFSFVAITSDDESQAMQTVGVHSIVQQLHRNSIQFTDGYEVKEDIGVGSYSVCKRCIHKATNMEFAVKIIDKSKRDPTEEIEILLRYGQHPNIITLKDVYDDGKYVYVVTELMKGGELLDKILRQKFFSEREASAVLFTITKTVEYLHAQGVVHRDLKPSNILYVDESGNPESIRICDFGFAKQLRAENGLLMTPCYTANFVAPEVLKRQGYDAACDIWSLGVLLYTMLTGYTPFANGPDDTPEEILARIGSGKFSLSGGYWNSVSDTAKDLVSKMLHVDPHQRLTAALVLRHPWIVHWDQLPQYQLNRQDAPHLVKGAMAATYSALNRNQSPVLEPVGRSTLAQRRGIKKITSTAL
BUB1 (human), sequence (O43683 whole entry, looked up): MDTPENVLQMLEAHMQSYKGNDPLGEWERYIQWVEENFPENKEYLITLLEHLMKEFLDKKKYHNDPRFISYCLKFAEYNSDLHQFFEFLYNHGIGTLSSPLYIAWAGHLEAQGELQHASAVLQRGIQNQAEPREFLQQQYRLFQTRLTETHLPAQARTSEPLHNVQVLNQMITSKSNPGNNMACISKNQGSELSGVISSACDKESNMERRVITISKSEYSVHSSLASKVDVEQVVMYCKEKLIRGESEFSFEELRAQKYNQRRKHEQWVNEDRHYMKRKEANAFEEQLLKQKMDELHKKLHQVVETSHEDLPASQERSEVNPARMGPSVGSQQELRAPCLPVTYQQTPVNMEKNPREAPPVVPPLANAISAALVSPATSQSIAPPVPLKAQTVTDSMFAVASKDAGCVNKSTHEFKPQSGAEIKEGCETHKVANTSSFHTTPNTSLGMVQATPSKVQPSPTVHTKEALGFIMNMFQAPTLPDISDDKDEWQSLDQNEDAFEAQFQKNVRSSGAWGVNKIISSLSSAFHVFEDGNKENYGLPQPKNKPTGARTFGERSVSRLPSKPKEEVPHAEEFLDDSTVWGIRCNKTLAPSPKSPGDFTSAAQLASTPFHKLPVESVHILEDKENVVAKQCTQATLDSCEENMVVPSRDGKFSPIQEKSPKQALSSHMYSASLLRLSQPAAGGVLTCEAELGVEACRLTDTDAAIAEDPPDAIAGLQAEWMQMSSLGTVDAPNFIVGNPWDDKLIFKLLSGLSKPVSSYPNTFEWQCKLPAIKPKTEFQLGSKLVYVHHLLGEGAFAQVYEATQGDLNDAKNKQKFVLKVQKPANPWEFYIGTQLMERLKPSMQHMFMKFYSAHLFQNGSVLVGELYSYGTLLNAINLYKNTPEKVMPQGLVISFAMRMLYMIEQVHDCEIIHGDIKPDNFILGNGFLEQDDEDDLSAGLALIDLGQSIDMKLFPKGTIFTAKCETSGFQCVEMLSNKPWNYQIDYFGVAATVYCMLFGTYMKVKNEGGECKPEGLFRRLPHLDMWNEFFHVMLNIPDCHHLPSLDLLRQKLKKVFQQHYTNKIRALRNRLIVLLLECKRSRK
WNK1 (human), sequence (Q9H4A3 whole entry, looked up): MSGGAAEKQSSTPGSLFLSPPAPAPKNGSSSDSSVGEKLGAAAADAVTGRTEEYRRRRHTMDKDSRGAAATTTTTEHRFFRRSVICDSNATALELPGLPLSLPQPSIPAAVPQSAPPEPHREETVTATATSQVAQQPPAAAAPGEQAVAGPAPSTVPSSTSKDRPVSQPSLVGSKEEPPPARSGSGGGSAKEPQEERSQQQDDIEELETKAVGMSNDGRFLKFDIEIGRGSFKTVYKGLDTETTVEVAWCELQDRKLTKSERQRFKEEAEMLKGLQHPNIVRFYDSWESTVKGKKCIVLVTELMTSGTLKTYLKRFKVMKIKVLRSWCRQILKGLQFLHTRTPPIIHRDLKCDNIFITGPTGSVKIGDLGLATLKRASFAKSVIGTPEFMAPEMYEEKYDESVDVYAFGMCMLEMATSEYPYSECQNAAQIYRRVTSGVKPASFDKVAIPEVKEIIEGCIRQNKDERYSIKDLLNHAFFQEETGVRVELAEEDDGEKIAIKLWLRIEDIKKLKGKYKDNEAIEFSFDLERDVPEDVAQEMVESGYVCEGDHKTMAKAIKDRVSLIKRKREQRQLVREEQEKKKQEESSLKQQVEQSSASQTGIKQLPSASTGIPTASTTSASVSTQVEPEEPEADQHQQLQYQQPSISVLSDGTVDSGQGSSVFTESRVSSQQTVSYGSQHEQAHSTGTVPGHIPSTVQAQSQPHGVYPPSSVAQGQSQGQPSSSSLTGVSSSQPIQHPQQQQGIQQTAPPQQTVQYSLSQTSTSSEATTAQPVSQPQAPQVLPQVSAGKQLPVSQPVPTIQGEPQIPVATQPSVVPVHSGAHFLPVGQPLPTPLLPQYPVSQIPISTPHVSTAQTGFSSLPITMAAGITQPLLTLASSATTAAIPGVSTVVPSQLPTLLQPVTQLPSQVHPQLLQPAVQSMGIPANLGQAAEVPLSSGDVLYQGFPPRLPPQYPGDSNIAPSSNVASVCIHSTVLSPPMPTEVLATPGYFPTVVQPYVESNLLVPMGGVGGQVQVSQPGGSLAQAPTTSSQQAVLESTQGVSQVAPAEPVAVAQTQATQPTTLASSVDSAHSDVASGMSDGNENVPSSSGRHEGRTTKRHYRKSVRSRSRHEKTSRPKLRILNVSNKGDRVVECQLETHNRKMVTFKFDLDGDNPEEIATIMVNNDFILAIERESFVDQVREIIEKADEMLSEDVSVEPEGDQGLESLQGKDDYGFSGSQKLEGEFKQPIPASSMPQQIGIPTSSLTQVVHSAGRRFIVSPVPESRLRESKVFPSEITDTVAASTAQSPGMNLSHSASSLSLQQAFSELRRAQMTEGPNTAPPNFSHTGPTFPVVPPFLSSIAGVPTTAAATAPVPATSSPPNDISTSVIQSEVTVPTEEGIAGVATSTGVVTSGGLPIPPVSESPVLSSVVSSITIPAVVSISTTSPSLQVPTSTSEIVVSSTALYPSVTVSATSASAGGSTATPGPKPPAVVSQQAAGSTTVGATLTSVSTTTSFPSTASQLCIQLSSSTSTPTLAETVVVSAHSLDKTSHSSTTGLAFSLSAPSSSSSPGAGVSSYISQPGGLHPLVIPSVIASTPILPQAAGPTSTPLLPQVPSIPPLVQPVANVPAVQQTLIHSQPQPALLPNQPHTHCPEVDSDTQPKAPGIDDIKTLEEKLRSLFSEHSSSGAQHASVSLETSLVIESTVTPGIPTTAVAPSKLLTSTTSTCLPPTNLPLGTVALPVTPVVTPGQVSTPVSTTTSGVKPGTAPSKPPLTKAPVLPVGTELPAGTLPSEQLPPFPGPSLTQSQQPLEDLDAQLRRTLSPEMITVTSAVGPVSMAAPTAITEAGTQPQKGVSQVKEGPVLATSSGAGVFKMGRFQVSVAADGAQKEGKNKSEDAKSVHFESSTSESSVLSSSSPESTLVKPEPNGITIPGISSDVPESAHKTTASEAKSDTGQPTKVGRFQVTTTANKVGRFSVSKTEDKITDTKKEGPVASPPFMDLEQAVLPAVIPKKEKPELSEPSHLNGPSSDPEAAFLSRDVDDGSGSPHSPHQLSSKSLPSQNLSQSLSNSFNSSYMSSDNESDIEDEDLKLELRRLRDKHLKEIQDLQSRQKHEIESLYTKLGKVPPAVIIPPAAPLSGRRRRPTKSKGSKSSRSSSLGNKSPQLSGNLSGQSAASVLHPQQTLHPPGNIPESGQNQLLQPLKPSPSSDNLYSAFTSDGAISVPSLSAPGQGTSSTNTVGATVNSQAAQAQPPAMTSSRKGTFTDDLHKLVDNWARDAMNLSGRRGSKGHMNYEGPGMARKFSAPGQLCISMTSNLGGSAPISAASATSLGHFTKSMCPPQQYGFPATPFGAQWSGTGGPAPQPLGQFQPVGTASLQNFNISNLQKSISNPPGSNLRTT

As to `CCN1CCN(Cc2ccc(Nc3ncc4c(n3)N(C)c3ccccc3C(=O)N4C)cc2C(F)(F)F)CC1`, the kinase still bound, per cent of control at CDK4 CCND1 (human) was 65%; in assay [1] it was 0.1%.
Regarding `C=CC(=O)Nc1cccc(Oc2nc(Nc3ccc(N4CCN(C)CC4)cc3OC)ncc2Cl)c1`, the kinase still bound, per cent of control (in [2]; in assay [3]; in [1]; on ABL1 (human)) was 100% each time.
With `Cc1ccc(C(=O)Nc2cccc(C(F)(F)F)c2)cc1Nc1cncc(C(N)=O)c1`, the kinase still bound, per cent of control (in assay [2]; in assay [3]; in assay [1]; at ABL1 (human)) was 100% in each case.
Regarding `O=C(O)c1ccc(Nc2ncc3c(n2)-c2ccc(Cl)cc2C(c2c(F)cccc2F)=NC3)cc1`, the kinase still bound, per cent of control at CDK4 CCND1 (human) was determined as 98%.
Turning to `Cc1ccc(NC(=O)c2cccc(C(C)(C)C#N)c2)cc1Nc1ccc2ncn(C)c(=O)c2c1`, the kinase still bound, per cent of control on CDK4 CCND1 (human) is 61%; in [1], 3.4%.
Regarding `COc1cc(C(=O)NC2CCN(C)CC2)ccc1Nc1ncc2c(n1)N(C1CCCC1)C(C)CC(=O)N2C` (stereo not drawn), the kinase still bound, per cent of control (in assay [2]; in assay [3]; in assay [1]; on ABL1 (human)) was 100% in each case.
As for `C=CC(=O)Nc1cc(NC(=O)c2ccc(C)c(NC(=O)c3ccno3)c2)cc(C(F)(F)F)c1`, the kinase still bound, per cent of control at CDK4 CCND1 (human) was 100%; in assay [1], 86%.
The corresponding values for `O=C(NC1CC1)c1cccc(-c2ccc3c(NC(=O)C4CC4)n[nH]c3c2)c1` are 94% and 55%.
For the compound `CCOc1cc2ncc(C#N)c(Nc3ccc(OCc4ccccn4)c(Cl)c3)c2cc1NC(=O)/C=C/CN(C)C`, the kinase still bound, per cent of control in [3] worked out at 71%; at CDK4 CCND1 (human) it was 71%; in assay [1] it was 100%; on ABL1 (human) it was 100%.
Consider `C[C@@H](Oc1cc(-n2cnc3ccc(CN4CCN(C)CC4)cc32)sc1C(N)=O)c1ccccc1C(F)(F)F`, for which the figures for the kinase still bound, per cent of control (on CDK4 CCND1 (human); in assay [1]) were 91% and 55%, respectively.
As to `OCCCNc1cc(-c2ccnc(Nc3cccc(Cl)c3)n2)ccn1`, the kinase still bound, per cent of control (in assay [2]; in assay [3]; in [1]; on ABL1 (human)) was 100% each time.
Consider `Cc1ccc2nc(NCCN)c3ncc(C)n3c2c1`, for which the kinase still bound, per cent of control came out at 100% in [2], 58% on CDK4 CCND1 (human) and 87% in [1].
For `O=C1Nc2ccc(I)cc2/C1=C/c1cc(Br)c(O)c(Br)c1`, the kinase still bound, per cent of control on CDK4 CCND1 (human) was 65%; in assay [1], 54%.
Consider `CN(C)C/C=C/C(=O)Nc1cccc(Nc2ncc3c(n2)N(C)c2ccccc2C(=O)N3C)c1`, for which the kinase still bound, per cent of control came to 78% at CDK4 CCND1 (human) and 0.1% in assay [1].
Take `COc1cc(C(=O)NC2CCN(C)CC2)ccc1Nc1ncc2c(n1)N(C1CCCC1)CCC(=O)N2C(C)C`: the kinase still bound, per cent of control (in assay [2]; in assay [3]; in assay [1]; at ABL1 (human)) was 100% in each case.
`Cc1cc([C@@H](C)Nc2ccccc2C(=O)O)c2nc(N3CCOCC3)cc(=O)n2c1`: the kinase still bound, per cent of control on CDK4 CCND1 (human) is 100%; in [1], 94%.
For `Nc1ccc(-c2ccc3ncc4ccc(=O)n(-c5cccc(C(F)(F)F)c5)c4c3c2)cn1`, the kinase still bound, per cent of control is 100% on CDK4 CCND1 (human) and 76% in assay [1].
Turning to `CCC(=O)N1CCN(c2ccc(-n3c(=O)ccc4cnc5ccc(-c6cnc7ccccc7c6)cc5c43)cc2C(F)(F)F)CC1`, the results for the kinase still bound, per cent of control on CDK4 CCND1 (human) and at ABL1 (human) were 100% and 60%, respectively.
`COc1cc(N2CCN(C)CC2)ccc1Nc1nc(N)c(C(=O)c2c(Cl)cccc2Cl)s1` came in with a kinase still bound, per cent of control in [1] of 90%.
In the case of `CC[C@@H]1C(=O)N(C)c2cnc(Nc3ccc(C(=O)NC4CCN(C)CC4)cc3OC)nc2N1C1CCCC1`, the kinase still bound, per cent of control (in [2]; in [3]; in [1]; on ABL1 (human)) was 100% throughout.
Consider `C=CC(=O)Nc1cccc(Nc2nc(N[C@H]3CC[C@H](N(C)C)CC3)nc3c2ncn3C(C)C)c1`, for which the results for the kinase still bound, per cent of control (on CDK4 CCND1 (human); in assay [1]) were 40% and 70%, respectively.
On to `Cn1c(=O)n(-c2ccc(C(C)(C)C#N)cc2)c2c3cc(-c4cnc5ccccc5c4)ccc3ncc21`, for which the kinase still bound, per cent of control (in [2]; in [3]; in assay [1]; at ABL1 (human)) was 100% throughout.
Regarding `N#Cc1c(NC(=O)c2cccc3ccccc23)sc2c1CCCC2`, the kinase still bound, per cent of control on SGK1 (human) came out at 100%; on WNK3 (human) it was 100%; on CDK4 CCND1 (human), 100%; in [1], 100%; at RPS6KA3 KD2 (human), 100%; on WNK1 (human), 89%. Besides, the kinase still bound, per cent of control at GSG2 (human) and on BUB1 (human) was 100% in each case.
Turning to `O=C(NOC[C@H](O)CO)c1ccc(F)c(F)c1Nc1ccc(I)cc1F`, the kinase still bound, per cent of control was 100% at SGK1 (human); 100% at WNK3 (human); 93% at CDK4 CCND1 (human); 100% in [1]; 100% at RPS6KA3 KD2 (human); 92% at WNK1 (human). The kinase still bound, per cent of control on GSG2 (human) and at BUB1 (human) was 100% in each case.
Regarding `CCCS(=O)(=O)Nc1ccc(F)c(C(=O)c2c[nH]c3ncc(-c4ccc(Cl)cc4)cc23)c1F`, the kinase still bound, per cent of control was 79% in assay [2], 52% at CDK4 CCND1 (human) and 57% at ABL1 (human).
